For experiment [1], the system named is saponin-permeabilized ventricular cardiomyocytes (sp-vCM) from RyR2R2474S/+ mice. Nature of the experiment: Ca2+ wave decay in saponin-permeabilized ventricular cardiomyocytes, RyR2R2474S/+ mice. Type of experiment: cell-based. The following applies: 10 µM, result in words. An excerpt: (§1) • Figure 1: Synthesis scheme showing the synthesis of multifunctional compounds with cyclopropanol residues based on 1,4 -benzothiazepines. The respective reaction conditions (a) to (i) are as follows: (a) Jones reagent, aceton; (b) H2SO4, EtOH; (c) EtMgBr, Ti(OiPr)4, EtzO; (d) t-BuMe2SiOSO2CF3, 2,6-lutidine, DCM; (e) Hz, Pd/C, THF; (f) Dess-Martin reagent, DCM; (g) K2CO3, 1,4-dioxane; (h) N2H4*H2O, EtOH; (i) Na(CH3COO)3BH, 1,2-dichloroethane; (j) NaH, DMF; (k) aq. HF (55%), MeCN or 1 M n-Bu4NF in THF or KF, Et3N*HCl, MeOH. m,n = 2-8. • Figure 2: Synthesis scheme showing the synthesis of multifunctional compounds with cyclopropanol residues based on the "open" analogs 1,4 -benzothiazepines (i.e. 3-[(4-methoxyphenyl)oxy]-and 3-[(4-methoxyphenylthio)]propane-1-amine derivatives). […] Values represent the mean ± S.D., *** P < 0.0005, **** P < 0.0001 vs. DMSO by unpaired t test; n = 6 - 28. • Figure 6: Time-lapse fluorescence measurements using TECAN Spark 20M plate reader with HEK293 cells expressing WT RyR2 and R-CEPIA1er indicator. […] Fluorescence ratio F/F0, where F0 - average fluorescence signal for the first 90 seconds, F- average fluorescence signal for the last 100 s, was taken for the calculations. […] Data sets were analyzed by unpaired Student's t-test. n.s. non-significant with P=0.59 for Dan, **, P<0.01 with P=0.003 for S36, and *, P<0.05 with P=0.019 for GM1869; (D, E, F) Relative changes in the decay time tau of Ca2+ transients from spontaneous Ca2+ waves (in control/drug) by Dan (D, 10µM), S36 (E, 10 µM), and GM1869 (F, 10 µM) in cardiomyocytes from WT and RyR2R2474S/+ mice. […] Rise times represent the tau values calculated by a mono-exponential fit of the Ca2+ transients from start to the peak of the signal. Ca2+ transients were recorded in control conditions and every 2 min (S36) or 4 min (GM1869) after drug application. **, P = 0.0065 for S36; ****, P = 0.000019 for GM1869, evaluated by paired Student's t-test. […] Decay times represent the tau values calculated by a mono-exponential fit of the Ca2+ transients from half maximum to baseline of the signal. […]

For experiment [2], the system named is saponin-permeabilized ventricular cardiomyocytes (sp-vCM) from WT mice. Kind of experiment: Ca2+ wave decay in saponin-permeabilized ventricular cardiomyocytes, WT mice. Type of experiment: cell-based. The following applies: 10 µM, result in words.
Source text: as §1

Experiment [3] deals with RyR2-R2474S+/- iPSC cardiomyocytes. Nature of the experiment: Electrically induced Ca2+ transients in intact iPSC-derived cardiomyocytes, RyR2-R2474S+/-. Type of experiment: cell-based, human. The following applies: estimated from non-linear fit; for IC50: read-out: IC50 values for the rise times of Ca2+ transients. From the text:
(§2) • Figure 1: Synthesis scheme showing the synthesis of multifunctional compounds with cyclopropanol residues based on 1,4 -benzothiazepines. The respective reaction conditions […] are as follows: (a) Jones reagent, aceton; (b) H2SO4, EtOH; (c) EtMgBr, Ti(OiPr)4, EtzO; (d) t-BuMe2SiOSO2CF3, 2,6-lutidine, DCM; (e) Hz, Pd/C, THF; (f) Dess-Martin reagent, DCM; (g) K2CO3, 1,4-dioxane; (h) N2H4*H2O, EtOH; (i) Na(CH3COO)3BH, 1,2-dichloroethane; (j) NaH, DMF; (k) aq. HF (55%), MeCN or 1 M n-Bu4NF in THF or KF, Et3N*HCl, MeOH. m,n = 2-8. • Figure 2: Synthesis scheme showing the synthesis of multifunctional compounds with cyclopropanol residues based on the "open" analogs 1,4 -benzothiazepines (i.e. 3-[(4-methoxyphenyl)oxy]-and 3-[(4-methoxyphenylthio)]propane-1-amine derivatives). […] Values represent the mean ± S.D., *** P < 0.0005, **** P < 0.0001 vs. DMSO by unpaired t test; n = 6 - 28. • Figure 6: Time-lapse fluorescence measurements using TECAN Spark 20M plate reader with HEK293 cells expressing WT RyR2 and R-CEPIA1er indicator. (a) R-CEPIA1er assay, control (0.1 v/v% DMSO) or 100 µM of compound 14a was injected at 90 seconds (arrow). Fluorescence ratio F/F0, where F0 - average fluorescence signal for the first 90 seconds, F- average fluorescence signal for the last 100 s, was taken for the calculations. (b-d) Dose-response effects of compounds 13 and 14 on [Ca^2+]ER in HEK293-RyR2-R-CEPIA1er cells. […] Data sets were analyzed by unpaired Student's t-test. n.s. non-significant with P=0.59 for Dan, **, P<0.01 with P=0.003 for S36, and *, P<0.05 with P=0.019 for GM1869; (D, E, F) Relative changes in the decay time tau of Ca2+ transients from spontaneous Ca2+ waves (in control/drug) by Dan (D, 10µM), S36 (E, 10 µM), and GM1869 (F, 10 µM) in cardiomyocytes from WT and RyR2R2474S/+ mice. […] Rise times represent the tau values calculated by a mono-exponential fit of the Ca2+ transients from start to the peak of the signal. Ca2+ transients were recorded in control conditions and every 2 min (S36) or 4 min (GM1869) after drug application. **, P = 0.0065 for S36; ****, P = 0.000019 for GM1869, evaluated by paired Student's t-test. […] Decay times represent the tau values calculated by a mono-exponential fit of the Ca2+ transients from half maximum to baseline of the signal. Ca2+ transients were recorded in control conditions and every 2 min (S36) or 4 min (GM1869) after drug application. Data sets were analyzed by paired Student's t-test. n.s., P = 0.14; **, P = 0.0043. […] Data from each experiment were normalized to the first transient recorded. […]

In experiment [4] the test system is RyR2-WT iPSC cardiomyocytes. Nature of the experiment: Electrically induced Ca2+ transients in intact iPSC-derived cardiomyocytes, RyR2-WT. Type of experiment: cell-based, human. As to conditions: estimated from non-linear fit; for IC50: read-out: IC50 values for the rise times of Ca2+ transients.
Source text: as §2

Where [5] appears, read: Homo sapiens, iPSC, read-out: EC50 values for the decay times of Ca2+ transients.

Here are results for two compounds from EP4548971A1, “1,4-BENZOTHIAZEPINES AND RELATED COMPOUNDS WITH CYCLOPROPANOL GROUPS AS MULTI-TARGETED DRUGS” (Georg-August-Universität Göttingen Stiftung Öffentlichen …, priority 2023, dated 2025).

By EC50 is commonly meant the concentration giving half of the maximal effect. Broadly, the IC50 is the concentration needed to halve the response being measured.

Consider `COc1ccc2c(c1)CN(CCCCN(CCCCC1(O)CC1)CCCCC1(O)CC1)CCS2` [Compound 14a, 1,1'-(((4-(7-Methoxy-2,3-dihydrobenzo[1,4-f]thiazepin-4(5H)-yl)butyl)azanediyl)bis(butane-4,1-diyl))bis(cyclopropan-1-ol)], for which the “Relative changes in the decay time tau of Ca2+ transients from spontaneous Ca2+ waves (in control/drug)” value in experiment [1] and in experiment [2] was “significantly below 1” throughout. Further, the EC50 in experiment [3] (setting [5]) was 71 pM; in experiment [4] (setting [5]), 97 pM. In addition, the IC50 in experiment [3] (Homo sapiens, iPSC) was 45 pM; in experiment [4] (Homo sapiens, iPSC), 25 pM.

For `COc1ccc2c(c1)CN(C(=O)C(=O)O)CCS2` [Compound S36, reference compound], the “Relative changes in the decay time tau of Ca2+ transients from spontaneous Ca2+ waves (in control/drug)” value in experiment [1] and in experiment [2] was “not significantly different from 1” throughout. Further, the IC50 was 40 pM in experiment [3] (Homo sapiens, iPSC) and 150 pM in experiment [4] (Homo sapiens, iPSC). Also, the “EC50 values for the decay times of Ca2+ transients” value in experiment [3] and in experiment [4] was “no EC50 values were obtained” in each case.
